Values quoted from earlier work in patent publication US9688668B2, “Long chain base sphingosine kinase inhibitors” (UNIVERSITY OF VIRGINIA PATENT FOUNDATION, priority 2012, dated 2017).

Biological target: sphingosine kinases
Conditions: background statement; read-out: typical KI value; cited from earlier work

Q: Which Ki does the source give for `CCCCCCCCCCCCCCC[C@H](O)[C@@H](N)CO` (racemic) [DL-threo-dihydrosphingosine] here?
A: < 10 µM
